ChEMBL document CHEMBL3046851, “Synthesis of analogues of monic acids A and C: Potential herbicides and inhibitors of isoleucyl tRNA synthetase” (Bioorg Med Chem Lett, 1996)
Active and inactive are the calls of the source. No cut-off for these calls is given here.

What was measured:
[1] = tested on: Poaceae; experiment: Herbicidal activity against Poaceae (grass) weeds; assay type: functional, organism-based
[2] = Herbicidal activity against broadleaf weeds; assay type: functional
[3] = tested on: Spinacia oleracea; experiment: Inhibition of Spinacia oleracea (spinach) chloroplast isoleucyl tRNA synthetase at 1 uM

COC(=O)/C=C(/C)Cc1cccc(C[C@@H]2O[C@H]2[C@@H](C)[C@H](C)O)c1
Activity [1]: inactive
Activity [2]: inactive
inhibition [3]: inactive

CCOC(=O)/C=C(\C)C[C@H]1OC[C@H](C/C=C/[C@@H](C)[C@H](C)O)CO1
Activity [1]: inactive
Activity [2]: inactive
inhibition [3]: inactive

CCOC(=O)/C=C(\C)C[C@H]1OC[C@@H](C/C=C/[C@@H](C)[C@H](C)O)CO1
Activity [1]: inactive
Activity [2]: inactive
inhibition [3]: inactive

CCOC(=O)c1cccc(-c2cccc(C/C=C/[C@@H](C)[C@H](C)O)c2)c1
Activity [1]: inactive
Activity [2]: inactive
inhibition [3]: inactive

COC(=O)/C=C(\C)Cc1cccc(C[C@H]2O[C@@H]2[C@@H](C)[C@H](C)O)c1
Activity [1]: inactive
Activity [2]: inactive
inhibition [3]: inactive

CCOC(=O)c1cccc(-c2cccc(C[C@@H]3O[C@H]3[C@@H](C)[C@H](C)O)c2)c1
Activity [1]: inactive
Activity [2]: inactive
inhibition [3]: inactive

COC(=O)/C=C(/C)Cc1cccc(C/C=C/[C@@H](C)[C@H](C)O)c1
Activity [1]: inactive
Activity [2]: inactive
inhibition [3]: inactive

COC(=O)/C=C(/C)Cc1cccc(C[C@H]2O[C@@H]2[C@@H](C)[C@H](C)O)c1
Activity [1]: inactive
Activity [2]: inactive
inhibition [3]: inactive

C/C(=C\C(=O)OCCCCCCCCC(=O)O)C[C@@H]1OC[C@H](C[C@@H]2O[C@H]2[C@@H](C)[C@H](C)O)[C@@H](O)[C@H]1O
inhibition [3]: 75%

COC(=O)/C=C(\C)Cc1cccc(C/C=C/[C@@H](C)[C@H](C)O)c1
Activity [1]: inactive
Activity [2]: inactive
inhibition [3]: inactive

CCOC(=O)c1cccc(-c2cccc(C[C@H]3O[C@@H]3[C@@H](C)[C@H](C)O)c2)c1
Activity [1]: inactive
Activity [2]: inactive
inhibition [3]: inactive

CCOC(=O)/C=C(/C)C[C@H]1OC[C@H](C/C=C/[C@@H](C)[C@H](C)O)CO1
Activity [1]: inactive
Activity [2]: inactive
inhibition [3]: inactive

COC(=O)/C=C(\C)Cc1cccc(C[C@@H]2O[C@H]2[C@@H](C)[C@H](C)O)c1
Activity [1]: inactive
Activity [2]: inactive
inhibition [3]: inactive
